pKi: −log10 of the molar value.
Molecular target: Melanin-concentrating hormone receptor 1 (Rattus norvegicus, UniProt P97639)
Sequence (P97639 whole entry): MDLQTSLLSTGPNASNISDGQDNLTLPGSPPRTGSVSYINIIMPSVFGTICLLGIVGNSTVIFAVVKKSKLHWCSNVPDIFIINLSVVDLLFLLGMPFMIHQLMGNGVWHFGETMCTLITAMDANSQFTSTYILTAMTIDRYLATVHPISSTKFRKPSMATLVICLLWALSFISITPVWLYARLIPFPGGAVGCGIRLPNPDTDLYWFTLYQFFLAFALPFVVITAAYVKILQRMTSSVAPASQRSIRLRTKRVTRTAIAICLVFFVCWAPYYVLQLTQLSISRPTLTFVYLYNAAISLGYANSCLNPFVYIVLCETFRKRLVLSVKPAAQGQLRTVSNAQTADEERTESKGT

pKi: 8.07
SMILES: CN(C)CC1CCc2cc(NC(=O)c3ccc(-c4ccc(F)cc4)cc3)ccc2C1 (stereo unspecified) [4''-Fluoro-biphenyl-4-carboxylic acid (6-dimethylaminomethyl-5,6,7,8-tetrahydro-naphthalen-2-yl)-amide]

Source: BindingDB's records for doi:10.1016/s0014-2999(02)01314-6 (Takeda Chemical Industries, 2002)
